Peptide text beside a SMILES is read from it. * marks the point of attachment. Palmitoyl = CCCCCCCCCCCCCCCC(=O)*
How the values were obtained:
human GIP receptor [1] = target: T1, human GIP receptor (Homo sapiens, UniProt P48546); experiment: cAMP accumulation assay, antagonism of a GIP-mediated cAMP response (50-80% of max); format: cell-based
T1 construct: host or cells: COS-7, transient transfection (calcium phosphate), cDNA in pCMV-Script
T1 sequence (P48546 22-466): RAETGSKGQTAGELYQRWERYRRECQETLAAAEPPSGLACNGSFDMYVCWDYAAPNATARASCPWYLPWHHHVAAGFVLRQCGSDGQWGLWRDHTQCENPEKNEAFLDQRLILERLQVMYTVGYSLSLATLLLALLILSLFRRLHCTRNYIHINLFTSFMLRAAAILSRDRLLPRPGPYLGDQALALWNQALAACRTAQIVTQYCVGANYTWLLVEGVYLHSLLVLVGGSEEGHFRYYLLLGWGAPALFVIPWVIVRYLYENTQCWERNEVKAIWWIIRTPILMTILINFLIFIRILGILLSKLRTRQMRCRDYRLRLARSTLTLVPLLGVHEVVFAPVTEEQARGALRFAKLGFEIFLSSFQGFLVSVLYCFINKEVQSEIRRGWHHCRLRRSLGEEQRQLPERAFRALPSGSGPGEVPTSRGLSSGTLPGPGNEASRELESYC
Experimental: The day after, the cells were washed twice with Hepes buffered saline (HBS) buffer and incubated with HBS and 1 mM 3-isobutyl-1-methylxanthine (IBMX) for 30 min at 37° C. […] The HitHunter™ cAMP XS assay (DiscoveRx) was carried out according to the manufacturer's instructions.

human GIP receptor [2] = target: T1, human GIP receptor; experiment: cAMP accumulation assay, agonism (ligand alone); format: cell-based; conditions: COS-7 cells, Table 1; for Emax: COS-7, intrinsic cAMP activity
human GIP receptor [3] = target: T1, human GIP receptor; experiment: 125I-human GIP competition binding assay, in the presence and absence of 2% HSA; conditions: for Fold change HSA (2%)/Casein (0.1%): IC50 (plus HSA)/IC50 (minus HSA);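 for all read-outs here: nonspecific binding taken as radioligand bound to untransfected cells, IC50 obtained from nonlinear regression fits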
[4] = transiently transfected COS-7 cells, Table 1 and text, read-out: cAMP antagonism nM (IC50, antagonistic potency)
[5] = binding in 0.1% casein (absence of HSA), log value, read-out: logIC50 0.1% casein (converted)
[6] = heterologous competition binding, transiently transfected COS-7 cells expressing the human GIP receptor, read-out: Binding

Structure (SMILES)	IC50 (human GIP receptor [1]; [4])	Emax (human GIP receptor [2])	Fold change HSA (2%)/Casein (0.1%) (human GIP receptor [3])	IC50 (human GIP receptor [3]; [5])	Ability to antagonize the GIP-mediated cAMP response (in words) (human GIP receptor [1])	Affinity compared to GIP(3-30)NH2 (in words) (human GIP receptor [3])	IC50 (human GIP receptor [1]; Table 3b, initial data, read-out: cAMP - antagonisme IC50)	cAMP - antagonisme fold (paired) (human GIP receptor [1]; fold vs GIP(3-30)NH2, Table 3b)	IC50 (human GIP receptor [1]; given as log IC50 (negative sign), transiently transfected COS-7 cells, Table 1, read-out: cAMP antagonism log (converted))	IC50 (human GIP receptor [3]; Table 3b, initial data, read-out: Binding IC50)	Binding fold (paired) (human GIP receptor [3]; fold decrease in affinity compared to GIP(3-30)NH2, Table 3b)	IC50 (human GIP receptor [3]; [6])	EC50 (human GIP receptor [2]; read-out: cAMP agonism nM (EC50))
CCCCCCCCCCCC(=O)NCCCC[C@H](NC(=O)[C@H](CC(=O)O)NC(=O)[C@H](CCSC)NC(=O)[C@H](C)NC(=O)[C@@H](NC(=O)[C@H](CO)NC(=O)[C@H](Cc1ccc(O)cc1)NC(=O)[C@H](CC(=O)O)NC(=O)[C@H](CO)NC(=O)[C@@H](NC(=O)[C@H](Cc1ccccc1)NC(=O)[C@@H](N)[C@@H](C)O)[C@@H](C)CC)[C@@H](C)CC)C(=O)N[C@H](C(=O)N[C@@H](Cc1c[nH]cn1)C(=O)N[C@@H](CCC(N)=O)C(=O)N[C@@H](CCC(N)=O)C(=O)N[C@@H](CC(=O)O)C(=O)N[C@@H](Cc1ccccc1)C(=O)N[C@H](C(=O)N[C@@H](CC(N)=O)C(=O)N[C@@H](Cc1c[nH]c2ccccc12)C(=O)N[C@@H](CC(C)C)C(=O)N[C@@H](CC(C)C)C(=O)N[C@@H](C)C(=O)N[C@@H](CCC(N)=O)C(=O)N[C@@H](CCCCN)C(N)=O)C(C)C)[C@@H](C)CC [AT119, [hGIP(5-30)NH2—C12/16]]	26 nM	0%	7.2	398 nM	–	–	–	–	–	–	–	–	–
CCCCCCCCCCCCCC(=O)N[C@H](C(=O)N[C@@H](Cc1ccccc1)C(=O)N[C@H](C(=O)N[C@@H](CO)C(=O)N[C@@H](CC(=O)O)C(=O)N[C@@H](Cc1ccc(O)cc1)C(=O)N[C@@H](CO)C(=O)N[C@H](C(=O)N[C@@H](C)C(=O)N[C@@H](CCSC)C(=O)N[C@@H](CC(=O)O)C(=O)N[C@@H](CCCCN)C(=O)N[C@H](C(=O)N[C@@H](Cc1c[nH]cn1)C(=O)N[C@@H](CCC(N)=O)C(=O)N[C@@H](CCC(N)=O)C(=O)N[C@@H](CC(=O)O)C(=O)N[C@@H](Cc1ccccc1)C(=O)N[C@H](C(=O)N[C@@H](CC(N)=O)C(=O)N[C@@H](Cc1c[nH]c2ccccc12)C(=O)N[C@@H](CC(C)C)C(=O)N[C@@H](CC(C)C)C(=O)N[C@@H](C)C(=O)N[C@@H](CCC(N)=O)C(=O)N[C@@H](CCCCN)C(N)=O)C(C)C)[C@@H](C)CC)[C@@H](C)CC)[C@@H](C)CC)[C@@H](C)O [AT121, [hGIP(5-30)NH2—C14/5]]	54 nM	0%	5.7	158 nM	high potent antagonists	affinities in the same range as GIP(3-30)NH2	–	–	–	–	–	–	–
CCCCCCCCCCCCCCCC(=O)NCCCC[C@H](NC(=O)[C@H](CCC(=O)O)NC(=O)[C@H](CCSC)NC(=O)[C@H](C)NC(=O)[C@@H](NC(=O)[C@H](CO)NC(=O)[C@H](Cc1ccc(O)cc1)NC(=O)[C@H](CC(=O)O)NC(=O)[C@H](CO)NC(=O)[C@@H](NC(=O)[C@H](Cc1ccccc1)NC(=O)[C@@H](NC(=O)CNC(=O)[C@@H](N)CCC(=O)O)[C@@H](C)O)[C@@H](C)CC)[C@@H](C)CC)C(=O)N[C@H](C(=O)N[C@@H](C)C(=O)N[C@@H](CCC(N)=O)C(=O)N[C@@H](CCC(N)=O)C(=O)N[C@@H](CC(=O)O)C(=O)N[C@@H](Cc1ccccc1)C(=O)N[C@H](C(=O)N[C@@H](CC(N)=O)C(=O)N[C@@H](Cc1c[nH]c2ccccc12)C(=O)N[C@@H](CC(C)C)C(=O)N[C@@H](CC(C)C)C(=O)N[C@@H](C)C(=O)N[C@@H](CCC(N)=O)C(=O)N[C@@H](CCCCN)C(N)=O)C(C)C)[C@@H](C)CC [AT131, [hGIP(3-30)NH2[D15E; H18A]-C16/16]] (H-EGTFISDYSIAMEK(Palmitoyl)IAQQDFVNWLLAQK-NH2; N-terminus assumed)	–	35%	–	–	–	–	65 nM	1.1 fold	39.8 nM	6510 nM	49 fold	6510 nM	–
CCCCCCCCCCCCCCCC(=O)N[C@H](C(=O)N[C@@H](Cc1ccccc1)C(=O)N[C@H](C(=O)N[C@@H](CO)C(=O)N[C@@H](CC(=O)O)C(=O)N[C@@H](Cc1ccc(O)cc1)C(=O)N[C@@H](CO)C(=O)N[C@H](C(=O)N[C@@H](C)C(=O)N[C@@H](CCSC)C(=O)N[C@@H](CC(=O)O)C(=O)N[C@@H](CCCNC(=N)N)C(=O)N[C@H](C(=O)N[C@@H](CCCCN)C(=O)N[C@@H](CCC(N)=O)C(=O)N[C@@H](CCC(N)=O)C(=O)N[C@@H](CC(=O)O)C(=O)N[C@@H](Cc1ccccc1)C(=O)N[C@H](C(=O)N[C@@H](CC(N)=O)C(=O)N[C@@H](Cc1c[nH]c2ccccc12)C(=O)N[C@@H](CC(C)C)C(=O)N[C@@H](CC(C)C)C(=O)N[C@@H](C)C(=O)N[C@@H](CCC(N)=O)C(=O)N[C@@H](CCCNC(=N)N)C(N)=O)C(C)C)[C@@H](C)CC)[C@@H](C)CC)[C@@H](C)CC)[C@@H](C)O [AT133, [hGIP(5-30)NH2[K16R; H18K; K30R]-C16/5]] (Palmitoyl-TFISDYSIAMDRIKQQDFVNWLLAQR-NH2)	–	0%	1.3	1580 nM	failed to antagonize	–	–	–	–	–	–	1720 nM	–
CCCCCCCCCCCCCCCC(=O)NCCCC[C@H](NC(=O)[C@@H](NC(=O)[C@H](CCCNC(=N)N)NC(=O)[C@H](CC(=O)O)NC(=O)[C@H](CCSC)NC(=O)[C@H](C)NC(=O)[C@@H](NC(=O)[C@H](CO)NC(=O)[C@H](Cc1ccc(O)cc1)NC(=O)[C@H](CC(=O)O)NC(=O)[C@H](CO)NC(=O)[C@@H](NC(=O)[C@H](Cc1ccccc1)NC(=O)[C@@H](N)[C@@H](C)O)[C@@H](C)CC)[C@@H](C)CC)[C@@H](C)CC)C(=O)N[C@@H](CCC(N)=O)C(=O)N[C@@H](CCC(N)=O)C(=O)N[C@@H](CC(=O)O)C(=O)N[C@@H](Cc1ccccc1)C(=O)N[C@H](C(=O)N[C@@H](CC(N)=O)C(=O)N[C@@H](Cc1c[nH]c2ccccc12)C(=O)N[C@@H](CC(C)C)C(=O)N[C@@H](CC(C)C)C(=O)N[C@@H](C)C(=O)N[C@@H](CCC(N)=O)C(=O)N[C@@H](CCCNC(=N)N)C(N)=O)C(C)C [AT134, [hGIP(5-30)NH2[K16R; H18K; K30R]-16/18]] (H-TFISDYSIAMDRIK(Palmitoyl)QQDFVNWLLAQR-NH2; N-terminus assumed)	93 nM	11%	5.5	794 nM	–	–	–	–	–	–	–	882 nM	35 nM
CCCCCCCCCCCCCCCC(=O)N[C@H](C(=O)N[C@@H](Cc1ccccc1)C(=O)N[C@H](C(=O)N[C@@H](CO)C(=O)N[C@@H](CC(=O)O)C(=O)N[C@@H](Cc1ccc(O)cc1)C(=O)N[C@@H](CO)C(=O)N[C@H](C(=O)N[C@@H](C)C(=O)N[C@@H](CCSC)C(=O)N[C@@H](CC(=O)O)C(=O)N[C@@H](CCCNC(=N)N)C(=O)N[C@H](C(=O)N[C@@H](Cc1c[nH]cn1)C(=O)N[C@@H](CCC(N)=O)C(=O)N[C@@H](CCC(N)=O)C(=O)N[C@@H](CC(=O)O)C(=O)N[C@@H](Cc1ccccc1)C(=O)N[C@H](C(=O)N[C@@H](CC(N)=O)C(=O)N[C@@H](Cc1c[nH]c2ccccc12)C(=O)N[C@@H](CC(C)C)C(=O)N[C@@H](CC(C)C)C(=O)N[C@@H](C)C(=O)N[C@@H](CCC(N)=O)C(=O)N[C@@H](CCCNC(=N)N)C(N)=O)C(C)C)[C@@H](C)CC)[C@@H](C)CC)[C@@H](C)CC)[C@@H](C)O [AT135, [hGIP(5-30)NH2[K16R; K30R]-C16/5]] (Palmitoyl-TFISDYSIAMDRIHQQDFVNWLLAQR-NH2)	–	0%	0.2	6310 nM	failed to antagonize	–	–	–	–	–	–	5940 nM	–

From US11572399B2, “Long-acting GIP peptide analogues” (University of Copenhagen, priority 2017, dated 2023)
